For data set [1] the following is noted: cited from earlier work.
Data set [2] in a line: saturation concentration / solubility of salicylic acid in solvent. The data set is classed as physicochemical. As to conditions: solution temperature of 25° C.

For the compound `O=C(O)c1ccccc1O` [salicylic acid, 2-hydroxybenzoic acid], the solubility in water entry in data set [1] is “relatively insoluble in water”. For the same compound, the “saturation concentration of salicylic acid in ethanol” value in data set [2] is listed as over 30 wt %.
